From paper PMC6720848, “Synthesis of New Quinoline-Piperonal Hybrids as Potential Drugs against Alzheimer’s Disease” (International Journal of Molecular Sciences, 2019)

What was measured:
Experiment in all cases: biochemical
[1] = target: T1, EeAChE (AChE from Electrophorus electricus) (Electrophorus electricus, UniProt O42275); assay type: biochemical; settings: modified Ellman's method, 37 °C, samples 1 to 100 µM, average ± standard deviation of three experiments
T1 construct: purchased Sigma-Aldrich (São Paulo, Brazil)
T1 sequence (O42275 24-633): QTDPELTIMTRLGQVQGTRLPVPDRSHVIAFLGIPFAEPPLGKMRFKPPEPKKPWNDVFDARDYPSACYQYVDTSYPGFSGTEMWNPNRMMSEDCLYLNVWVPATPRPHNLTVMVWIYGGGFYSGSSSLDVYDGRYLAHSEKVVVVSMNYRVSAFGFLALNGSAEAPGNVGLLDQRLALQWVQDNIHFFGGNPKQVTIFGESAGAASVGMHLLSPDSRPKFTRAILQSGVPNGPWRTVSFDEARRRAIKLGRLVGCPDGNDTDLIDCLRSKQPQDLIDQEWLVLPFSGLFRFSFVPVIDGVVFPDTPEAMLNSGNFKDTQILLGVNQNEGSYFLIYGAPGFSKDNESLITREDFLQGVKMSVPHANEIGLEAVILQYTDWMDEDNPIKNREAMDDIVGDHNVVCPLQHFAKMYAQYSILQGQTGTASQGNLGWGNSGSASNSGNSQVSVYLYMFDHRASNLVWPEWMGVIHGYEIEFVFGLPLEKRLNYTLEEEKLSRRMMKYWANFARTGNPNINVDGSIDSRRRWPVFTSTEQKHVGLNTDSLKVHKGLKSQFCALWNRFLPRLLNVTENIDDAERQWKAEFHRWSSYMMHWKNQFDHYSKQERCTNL
Description: (§1) In order to determine the anticholinesterase activity, we used Ellman’s method modified for a 96-wells plate. The velocities of substrate hydrolysis by AChE and BChE as function of sample concentration were evaluated for EeAChE and EqBChE. AChE, BChE and Ellman’s reagent (DTNB) were prepared in phosphate buffer (100 mM, pH 7.4). Acetylthiocholine iodide (ATCI), and butyrylthiocholine iodide (BTCI) were prepared in distilled water. Stock samples (100 mM) were prepared in dimethyl sulphoxide (DMSO) and appropriately diluted in distilled water to the desired concentrations immediately before use. All solutions were kept on ice during the experiment. All experiments were performed at 37 ± 1 °C.
(§2) The mixture was incubated for 10 min. Then, ATCI (0.5 mM) or BTCI (1.0 mM) was added to all wells and the plate was read immediately for 5 min in a spectrophotometer (Spectramax 340PC, Molecular Device®). The spontaneous and sample (100 µM) induced hydrolysis of the substrate were evaluated by replacing enzyme for buffer. […] The solvent (DMSO) was evaluated at the highest concentration (0.2%) used in the experiment. All concentrations refer to final concentrations. The samples were tested in at least 5 concentrations. […] The values of absorbance/min were calculated by the software Softmax Pro 6.4®. Inhibition values were calculated through non-linear regression with the software GraphPadPrism 5 (GraphPad software®, San Diego, CA, USA). […] EeAChE (EC.3.1.1.7), EqBChE (EC3.1.1.8), ATCI, BTCI and DTNB were purchased from Sigma-Aldrich (São Paulo, Brazil).

[2] = target: T2, EqBChE (butyrylcholinesterase from equine serum) (Equus caballus, UniProt P81908); assay type: biochemical; settings: modified Ellman's method, 37 °C, samples 1 to 100 µM, average ± standard deviation of three experiments
T2 construct: butyrylcholinesterase from equine serum (EqBChE); purchased Sigma-Aldrich (São Paulo, Brazil); host or cells: equine serum
T2 sequence (P81908 whole entry): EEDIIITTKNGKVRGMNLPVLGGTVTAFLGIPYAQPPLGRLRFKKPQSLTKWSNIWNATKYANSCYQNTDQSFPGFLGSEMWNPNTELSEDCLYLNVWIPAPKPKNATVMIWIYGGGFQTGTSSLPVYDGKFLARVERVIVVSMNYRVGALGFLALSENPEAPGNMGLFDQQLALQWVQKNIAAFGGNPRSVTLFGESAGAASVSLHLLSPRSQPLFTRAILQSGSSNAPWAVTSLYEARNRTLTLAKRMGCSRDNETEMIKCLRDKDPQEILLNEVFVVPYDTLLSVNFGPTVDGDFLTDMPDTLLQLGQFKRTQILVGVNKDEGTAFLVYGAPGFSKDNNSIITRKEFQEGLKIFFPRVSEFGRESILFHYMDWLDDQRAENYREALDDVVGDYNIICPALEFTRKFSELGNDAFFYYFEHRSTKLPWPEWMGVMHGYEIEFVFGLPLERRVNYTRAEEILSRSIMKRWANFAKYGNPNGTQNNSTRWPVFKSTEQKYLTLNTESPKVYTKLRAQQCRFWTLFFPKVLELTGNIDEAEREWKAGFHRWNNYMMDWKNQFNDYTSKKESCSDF
Description: as §1, §2

EeAChE = target: T3, EeAChE (Electrophorus electricus, UniProt O42275); settings: EeAChE 33 nM, ACh 5 mM, final concentration of the inhibitor 10 mM, 25 °C, triplicate; read-out: AChE inhibition (NMR test)
T3 construct: purchased Sigma-Aldrich (São Paulo, Brazil)
T3 sequence (O42275 24-633): as the sequence (O42275 24-633) above
Description: This sample was immediately inserted in the magnet for locking and shimming, allowing for the observation of the first ^1H spectra exactly 5 min after the addition of ACh. The next ^1H spectra were acquired at every 5 min with a single scan over 75 min. For testing the new compound, the same procedure was performed, including the addition of 5 μL of the potential EeAChE inhibitor (final concentration of the inhibitor in the NMR tube = 10 mM) before the addition of ACh. […] The values generated from the integration of the signals of ACh (consumed during the reaction) and Ac (produced during the reaction) are compared between each other and to the values of Ac produced in the presence and in the absence of the inhibitor. This enables the calculation of the percentages of inhibition, as described before [32]. All analyses were performed in triplicate.

Compound	IC50 [1]	other results
CC1(C)CC(=NNC(=N)N)c2cc3cc4c(cc3nc2C1)OCO4 [Compound 8, Guanylhydrazone of 7,7-Dimethyl-7,8-dihydro-[1,3]dioxolo[4,5-b]acridin-9(6h)-one]	8.5 ± 0.39 µM	IC50 [2]: 15.2 ± 0.75 µM; inhibition at 10000 µM (EeAChE): 73.9 ± 6.26%
O=C(O)c1cc2cc3c(cc2[nH]c1=O)OCO3 [Compound 5, Acid 5,6-Diidro-6-oxo-1,3-dioxolo[4,6g] quiniline-7-carboxilic]	14.2 ± 1.15 µM	–
O=c1[nH]c(=O)c2cc3cc4c(cc3nc2[nH]1)OCO4 [Compound 6, 1,3-Dioxolo [4,5-g] pirimido [4,5-b] quinoline-7,9 (6H,8H)-dione]	32.1 ± 3.53 µM	–
CCOC(=O)c1cc2cc3c(cc2[nH]c1=O)OCO3 [Compound 7, Ethyl 5,6-Dehidro-6-oxo-[1,3] dioxolano [4,5-g] quinoline-7-carboxilate]	62.8 ± 2.02 µM	–
CC1(C)CC(=O)c2cc3cc4c(cc3nc2C1)OCO4 [Compound 3, 7,8-Dihydro-7,7-dimethyl-1,3-dioxolo[4,5-b]acridin-9(6h)-one]	51.5 ± 2.47 µM	–
COC(=O)c1cc2cc3c(cc2nc1C)OCO3 [Compound 4, Methyl 6-Methyl-[1,3]dioxolo[4,5-g]quinone-7-carboxilate]	> 100 µM	IC50 EeAChE [1]: not able to inhibit; IC50 EqBChE [2]: not able to inhibit
